Test results: US20210330756A1, “Acetylation of Miro1” (University of South Carolina, priority 2020, published 2021)

Tests used:
[1] = test system: axonal mitochondrial membrane potential (ΨM); experiment: Mitochondrial membrane potential (JC-1 red/green ratio) in axon shafts of DRG neurons; format: cell-based, rat
Description: Considering the above changes in mitochondrial transport, we asked if MAG and CSPG might affect mitochondrial function in axons. Functional mitochondria are needed to generate ATP, and the mitochondrion's membrane potential (ΨM) is thought to reflect its capacity for generating ATP. Increased anterograde transport of mitochondria in axons correlated with higher ΨM, as measured by the ratiometric 5,5′,6,6′-tetrachloro-1,1′,3,3′-tetraethylbenzimidazolcarbocyanine iodide (JC-1) dye (Miller and Sheetz, 2004), and reduced axonal ΨM in Drosophila melanogaster larvae was recently correlated with overall decrease in mitochondrial transport (Liao et al., 2017).
JC-1 (Life Technologies) was used for wm measurements. For this, DRG cultures were equilibrated in culture medium with […] JC-1 for 20 min at 37° C. Medium was replaced, and the cells were maintained at 37° C. in the high-content imaging system on which JC-1 fluorescent signals in green and red wavelengths were acquired. […]
Vesicle trafficking was quantified using differential ImageJ Difference Tracker Plug-in (Andrews et al., 2010). 50-80-μm long unbranched axon segments at approximately the mid-region between growth cone and cell body were analyzed. […] The distance between the growth tip at end of the post-CALI sequence and the pre-CALI baseline was measured using LAS-X software. Movement of ≥0.5 μm toward the axon shaft was counted as retracted. Fluorescence emission of the Mito-KR post-CALI was analyzed using ImageJ. For normalizing intensities across FRAP image sets, fluorescence intensity at each time point was scaled using the LAS-X FRAP module so that the residual fluorescence signal at t=0 min (post-bleach) was set at 0 and the prebleach intensity was set at 100% for each bleached ROI. For axon shaft FRAP analyses, each 50-μm bleached ROI was divided into […], and the fluorescence intensity recovery was measured as described above. […] A minimum of 75 unmyelinated axons was analyzed for each nerve. All unmyelinated axons from each analyzed image were included for quantitative studies. […]

[2] = test system: growth cones of DRG neurons; experiment: Growth cone retraction after bath-applied growth inhibitors; format: cell-based, rat; conditions: 10 μM TubA
Description: MAG and CSPGs are more often tested as surface-bound substrates than with the bath applications used here. Thus, we tested whether bath application of growth inhibitors would cause growth cone retraction in a manner similar to surface-bound inhibitors. […] RhoA activation is a well-known downstream mediator for the growth-inhibitory effects of both MAG and CSPGs (Fujita and Yamashita, 2014), so we tested whether the RhoA/ROCK pathway contributes to the impact of aggregan on mitochondria distribution in growth cones.
MAG or Aggrecan exposures were performed as bath application or on coated substrates. For bath application, dissociated DRGs were cultured for 48 h and treated with 25 μg/ml of MAG-Fc (R&D Systems; 538-MG), 25 μg/ml Fc control (R&D Systems; 110-HG), or 10 μg/ml of Aggrecan (Sigma-Aldrich; A1960) for 4 h. Cultures were pretreated with either Ca^2+ chelator BAPTA-AM (3 μM; Sigma-Aldrich; A1076), ROCK inhibitor Y27632 (10 μM; Sigma-Aldrich; SCM075), HDAC6 inhibitor TubA (10 μM; R&D Systems; 6270), Thapsigargin (1 μM; Sigma-Aldrich; T9033), Rho Activator II (1 μg/ml; Cytoskeleton; CNO3), or equivalent volume DMSO 30 min before MAG-Fc, Aggrecan, or controls. For substrate-bound experiments, adult DRGs were cultured on glass bottom dishes (Greiner) that were coated with 25 μg/ml Aggrecan in addition to the laminin/poly-D-lysine substrate.

SMILES	effect on MAG-Fc- or CSPG-dependent declines in ΨM ([1]; 10 μM TubA)	effect on Rho activator- and thapsigargin-dependent decrease in ΨM ([1]; +10 μM TubA)	effect on aggrecan-induced growth cone retraction [2]	ΨM in the axons ([1]; 1 μg/ml Rho activator or 1 μM thapsigargin)
CN1CCc2c(c3ccccc3n2Cc2ccc(C(=O)NO)cc2)C1 [TubA, tubastatin]	prevented by inhibition of HDAC6 with TubA	also prevented by HDAC6 inhibition	prevented by application of TubA	
C/C=C(/C)C(=O)O[C@H]1C(C)=C2[C@H]([C@@H]1OC(=O)CCCCCCC)[C@@](C)(OC(C)=O)C[C@H](OC(=O)CCC)[C@@]1(O)[C@H]2OC(=O)[C@@]1(C)O [thapsigargin]				decreased ΨM
